Data published in ChEMBL document CHEMBL1137642, “Growth and drug resistance phenotypes resulting from cytomegalovirus DNA polymerase region III mutations observed in clinical specimens” (Antimicrob Agents Chemother, 2007).

Legend:
Human betaherpesvirus 5 [1] = experiment: Antiviral activity against Cytomegalovirus CMV T2784 with pol A809V UL97 C592G double mutant infected in HFF cells by SEAP reporter gene assay; format: functional, organism-based; conditions: Human betaherpesvirus 5, T2784, HFF
Human betaherpesvirus 5 [2] = experiment: Antiviral activity against Cytomegalovirus CMV T2417 with pol A809V mutant infected in HFF cells by SEAP reporter gene assay; format: functional, organism-based; conditions: Human betaherpesvirus 5, T2417, HFF
Human betaherpesvirus 5 [3] = experiment: Antiviral activity against Cytomegalovirus CMV T2420 with pol G841A mutant infected in HFF cells by SEAP reporter gene assay; format: functional, organism-based; conditions: Human betaherpesvirus 5, T2420, HFF
Human betaherpesvirus 5 [4] = experiment: Antiviral activity against Cytomegalovirus CMV 2817 with pol G841A UL97 C592G double mutant infected in HFF cells by SEAP reporter gene assay; format: functional, organism-based; conditions: Human betaherpesvirus 5, T2817, HFF
Human betaherpesvirus 5 [5] = experiment: Antiviral activity against Cytomegalovirus CMV T2211 infected in HFF cells by SEAP reporter gene assay; format: functional, organism-based; conditions: Human betaherpesvirus 5, T2211, HFF
Human betaherpesvirus 5 [6] = experiment: Antiviral activity against Cytomegalovirus CMV T2798 with pol T813S UL97 C592G double mutant infected in HFF cells by SEAP reporter gene assay; format: functional, organism-based; conditions: Human betaherpesvirus 5, T2798, HFF
Human betaherpesvirus 5 [7] = experiment: Drug resistance, ratio of EC50 for Cytomegalovirus CMV T2417 pol A809V mutant to EC50 for Cytomegalovirus CMV T2211 by plaque reduction assay; format: functional
Human betaherpesvirus 5 [8] = experiment: Antiviral activity against Cytomegalovirus CMV T2258 with UL97 C592G mutant infected in HFF cells by SEAP reporter gene assay; format: functional, organism-based; conditions: Human betaherpesvirus 5, T2258, HFF
Human betaherpesvirus 5 [9] = experiment: Antiviral activity against Cytomegalovirus CMV T2542 with pol T813S mutant infected in HFF cells by SEAP reporter gene assay; format: functional, organism-based; conditions: Human betaherpesvirus 5, T2542, HFF
Human betaherpesvirus 5 [10] = experiment: Drug resistance, ratio of EC50 for Cytomegalovirus CMV T2417 pol A809V mutant to EC50 for Cytomegalovirus CMV T2211 by SEAP reporter gene assay; format: functional
Human betaherpesvirus 5 [11] = experiment: Drug resistance, ratio of EC50 for Cytomegalovirus CMV T2420 pol G841A mutant to EC50 for Cytomegalovirus CMV T2211 by SEAP reporter gene assay; format: functional
Human betaherpesvirus 5 [12] = experiment: Drug resistance, ratio of EC50 for Cytomegalovirus CMV […] pol T813S mutant to EC50 for Cytomegalovirus CMV T2211 by SEAP reporter gene assay; format: functional
Human betaherpesvirus 5 [13] = experiment: Drug resistance, ratio of EC50 for Cytomegalovirus CMV T2784 with pol A809V UL97 C592G double mutant to EC50 for Cytomegalovirus CMV T2211 by SEAP reporter gene assay; format: functional
Human betaherpesvirus 5 [14] = experiment: Drug resistance, ratio of EC50 for Cytomegalovirus CMV pol T821I mutant to EC50 for Cytomegalovirus CMV T2211 by SEAP reporter gene assay; format: functional
Human betaherpesvirus 5 [15] = experiment: Drug resistance, ratio of EC50 for Cytomegalovirus CMV pol A384P mutant to EC50 for Cytomegalovirus CMV T2211 by SEAP reporter gene assay; format: functional
Human betaherpesvirus 5 [16] = experiment: Drug resistance, ratio of EC50 for Cytomegalovirus CMV T2798 with pol T813S UL97 C592G double mutant to EC50 for Cytomegalovirus CMV T2211 by SEAP reporter gene assay; format: functional
Human betaherpesvirus 5 [17] = experiment: Drug resistance, ratio of EC50 for Cytomegalovirus CMV T2817 with pol G841A UL97 C592G double mutant to EC50 for Cytomegalovirus CMV T2211 by SEAP reporter gene assay; format: functional

Compound | EC50 (Human betaherpesvirus 5 [1]) | EC50 (Human betaherpesvirus 5 [2]) | EC50 (Human betaherpesvirus 5 [3]) | EC50 (Human betaherpesvirus 5 [4]) | EC50 (Human betaherpesvirus 5 [5]) | EC50 (Human betaherpesvirus 5 [6]) | fold change (FC) (Human betaherpesvirus 5 [7]) | EC50 (Human betaherpesvirus 5 [8]) | EC50 (Human betaherpesvirus 5 [9]) | fold change (FC) (Human betaherpesvirus 5 [10]) | fold change (FC) (Human betaherpesvirus 5 [11]) | fold change (FC) (Human betaherpesvirus 5 [12]) | fold change (FC) (Human betaherpesvirus 5 [13]) | fold change (FC) (Human betaherpesvirus 5 [14]) | fold change (FC) (Human betaherpesvirus 5 [15]) | fold change (FC) (Human betaherpesvirus 5 [16]) | fold change (FC) (Human betaherpesvirus 5 [17])
Nc1ccn(C[C@@H](CO)OCP(=O)(O)O)c(=O)n1.O.O [CIDOFOVIR] | 0.45 µM | 0.42 µM | 0.58 µM | 0.67 µM | 0.22 µM | 0.37 µM | 1.6 | 0.27 µM | 0.6 µM | – | – | – | – | – | – | – | –
O=C(O)P(=O)(O)O [FOSCARNET] | 137 µM | 137 µM | 176 µM | 213 µM | 41 µM | 204 µM | 6.3 | 44 µM | 199 µM | 3 | 3 | 3 | – | – | – | – | –
Nc1nc2c(ncn2COC(CO)CO)c(=O)[nH]1 [GANCICLOVIR] | 6.1 µM | 2.6 µM | 3.5 µM | 8.4 µM | 1.1 µM | 6.6 µM | 2.6 | 3.9 µM | 2.7 µM | – | – | – | 2 | 5 | 5 | 2 | 2
